According to patent US6703483B1, “Compounds useful in pain management” (Cornell Research Foundation, Inc., priority 1999, dated 2004):

Tests used:
μ receptors = conditions: GPI; cited from earlier work
[1] = Respiratory depression studies (whole body plethysmography) after i.th. administration; conditions: rat; for decrease of minute ventilation: during 3 to 6 hours after administration
Protocol: Whole body plethysmography was performed as described in the literature (K. Tatsumi et al., J. Appl. Physiol. 71, 37-42 (1991)). An unrestrained rat was placed in a 3-liter whole-body plethysmograph chamber and breathed 100% humidified air supplied into and out of the chamber at a rate of 1000 ml/min. After a 15-min acclimation period the inlet and outlet of the chamber were closed and the pressure changes in the box, caused by the warming and wetting of the gas inspired by the rat and the cooling and drying of the expired gas, were recorded using a high-gain differential pressure transducer. A calibration volume of 0.2 ml of air was regularly introduced into the chamber during the recordings. The recordings were made for 20-30 seconds. Subsequently, the inlet and outlet were opened, and the gas supply was changed to a mixture of 5% CO2 and 21% O2 in N2 (100% humidified) and the rat was allowed to breathe the gas mixture for 5 min to reach a steady-state ventilatory condition. The recordings of changes in pressure were repeated with the chamber closed. Tidal volumes were calculated from the pressure changes using the equation derived by J. E. Drorbaugh and W. O. Fenn, Pediatrics 16, 81-87 (1955). Respiratory frequencies were also determined from the number of respiratory cycles in the recordings and minute ventilations were calculated (tidal volume x frequency).
Compounds were administered at a low dose (3×ED50 determined in the analgesic test) and at a high dose (30×ED50).

[2] = Hemodynamic and metabolic effects in the pregnant sheep model; type: in vivo; conditions: i.v. infusion 0.6 mg/kg/h and 0.06 mg/kg/h, respectively
Protocol: Using the same instrumented pregnant sheep model described above, DALDA and its analogs were administered by i.v. infusion at a dose of 0.6 mg/kg/h and 0.06 mg/kg/h, respectively. No effect on maternal blood pressure, heart rate, blood gases and plasma glucose were observed. Similarly, neither peptide had any effect on fetal blood pressure, heart rate, blood gases and plasma glucose.

[3] = In vivo disposition in pregnant sheep (fetal plasma, placental transfer); conditions: i.v. infusion to pregnant sheep
Protocol: The in vivo disposition after i.v. administration to pregnant sheep was examined by using procedures described in the literature (H. H. Szeto et al. J. Pharmacol. Exp. Ther. 284. 61-65 (1998)). Chronic indwelling catheters were surgically placed in four pregnant ewes (gestional age, 115-120 days; term ˜145 days) as described by H. H. Szeto et al., Am. J. Physiol. 258, R1453-R1458 (1990). […] The compounds according to the invention were administered as a constant-rate intravenous infusion (0.6 mg/kg/h and 0.06 mg/kg/h, respectively, for 4 h) to the sheep, and blood samples were collected at 0, 1, 2, 3, 3.5, 4, 4.25, 4.5, 5, 6, 7, 12 and 24 h. Blood samples were collected form the fetus at 0, 3, 3.5, 4, 5 and 6 h. All blood samples were collected into chilled borosilicate glass tubes containing EDTA and centrifuged, and the plasma was stored in glass containers with Teflon-lined caps and frozen at −80° C.
The compounds were quantified by using reversed-phase HPLC and MS detection, as described by Grigoriants et al., J. Chromatogr. B, Biomedical Applications 695, 287-298 (1997). […] The filtered plasma sample was chromatographed on an RP-analytical column (Delta Pak, 5 μm, C18, 100 Å, 150×3.9 mm; Waters, Milford, Mass.) at a flow rate of 1.5 ml/min, and UV absorption was monitored at 200 nm. […] Continuous flow-LSIMS was used to quantify DALDA. […]

μ receptor = molecular target: T1, μ receptor (Rattus norvegicus, UniProt P33535); conditions: rat brain membranes; cited from earlier work
T1 construct: from tissue; host or cells: rat brain (cerebellum removed) membranes

[4] = 2 h after i.th. administration, dose 7.5 μg (32×ED50); cited from earlier work

T1 sequence (P33535 whole entry): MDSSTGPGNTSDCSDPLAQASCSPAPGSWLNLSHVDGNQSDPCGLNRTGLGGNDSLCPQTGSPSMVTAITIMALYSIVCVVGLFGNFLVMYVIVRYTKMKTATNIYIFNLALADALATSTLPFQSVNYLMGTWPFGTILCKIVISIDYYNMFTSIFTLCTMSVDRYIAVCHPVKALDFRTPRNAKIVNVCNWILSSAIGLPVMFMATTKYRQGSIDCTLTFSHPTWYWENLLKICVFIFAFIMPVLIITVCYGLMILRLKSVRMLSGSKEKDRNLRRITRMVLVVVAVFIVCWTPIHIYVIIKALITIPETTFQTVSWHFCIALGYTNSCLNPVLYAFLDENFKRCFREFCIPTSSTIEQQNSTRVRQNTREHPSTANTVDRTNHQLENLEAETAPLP

Question: Which μ agonist potency (μ receptors) does the source give for NCCCC[C@H](NC(=O)[C@H](Cc1ccccc1)NC(=O)[C@@H](CCCN=C(N)N)NC(=O)[C@@H](N)Cc1ccc(O)cc1)C(N)=O [DALDA, H-Tyr-D-Arg-Phe-Lys-NH2] here?
Answer: Its μ agonist potency is “considerable μ agonist potency”.

Question: What about the “decrease of minute ventilation” value ([1]; high dose (30×ED50)) of the same compound?
Answer: Its value is 30%.

Question: What about the “decrease of minute ventilation” value ([1]; low dose (3×ED50)) of the same compound?
Answer: Its value is 26%.

Question: And the “effect on maternal blood pressure, heart rate, blood gases and plasma glucose” value [2]?
Answer: The value was “No effect”.

Question: And the “crossing of the placental barrier” value [3]?
Answer: The value was “do not cross the placental barrier to a significant extent”.

Question: What about the μ receptor affinity (μ receptor) of the same compound?
Answer: The μ receptor affinity was “high μ receptor affinity”.

Question: And the μ receptor selectivity (μ receptor)?
Answer: Its μ receptor selectivity is “excellent μ receptor selectivity”.

Question: What about the delayed respiratory depression [4] of the same compound?
Answer: Its delayed respiratory depression is “did produce delayed respiratory depression”.

Question: With Cc1cc(O)cc(C)c1C[C@H](N)C(=O)N[C@H](CCCNC(=N)N)C(=O)N[C@@H](Cc1ccccc1)C(=O)N[C@@H](CCCCN)C(N)=O [Example 1, H-Dmt-D-Arg-Phe-Lys-NH2] as the compound, how does the “decrease of minute ventilation compared to saline control” value ([1]; low dose (3×ED50) and high dose (30×ED50)) read?
Answer: The value was “Neither dose of H-Dmt-D-Arg-Phe-Lys-NH2 significantly decreased minute ventilation”.

Question: With CN1CC[C@]23c4c5ccc(O)c4O[C@H]2[C@@H](O)C=C[C@H]3[C@H]1C5 [morphine] as the compound, how does the “decrease of minute ventilation” value ([1]; high dose (30×ED50)) read?
Answer: Its value is 26%.
